In US8952024B2, “Herbicidal pyrimidone derivatives” (E I du Pont de Nemours and Company, priority 2009, dated 2015):

How the values were obtained:
Type in all cases: in vivo
[1] = system: barnyardgrass (Echinochloa crus-galli); assay: Test B flooded paddy test; settings: for Barnyardgrass plant response rating: Flood, 31 g ai/ha, scale 0 to 100 (0 no effect, 100 complete control)
How it was run: (§1)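 Flooded-pot test: water raised to 3 cm above soil when treating, compound put in the water, level unchanged thereafter. Plants were at 2 leaves. Readout after 13 to 15 days, visual, relative to controls; 0 signifies no effect and 100 complete control.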

[2] = system: ducksalad (Heteranthera limosa); assay: Test B flooded paddy test; settings: for Ducksalad plant response rating: Flood, 31 g ai/ha, scale 0 to 100 (0 no effect, 100 complete control)
How it was run: as §1

[3] = system: umbrella sedge (Cyperus difformis); assay: Test B flooded paddy test; settings: for Sedge, Umbrella plant response rating: Flood, 31 g ai/ha, scale 0 to 100 (0 no effect, 100 complete control)
How it was run: as §1

rice (Oryza sativa) = assay: Test B flooded paddy test; settings: for Rice plant response rating: Flood, 31 g ai/ha, scale 0 to 100 (0 no effect, 100 complete control)
How it was run: as §1

[4] = system: winter barley (Hordeum vulgare); assay: Test B postemergence plant response; settings: for Barley plant response rating (0 to 100 scale): 62 g ai/ha, 0 is no effect, 13 to 15 days
How it was run: (§2)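 Plants at the 1- to 4-leaf stage (2 to 18 cm tall), grown in pots of peat moss/vermiculite medium with wetting agent and starter nutrients, received postemergence applications of test chemicals. After 13 to 15 days in a greenhouse, injury was rated visually against untreated controls on a 0 (no effect) to 100 (complete control) scale.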

[5] = system: windgrass (Apera spica-venti); assay: Test B postemergence plant response; settings: for Windgrass plant response rating (0 to 100 scale): 62 g ai/ha, 0 is no effect, 13 to 15 days
How it was run: as §2

[6] = system: chickweed (Stellaria media); assay: Test B postemergence plant response; settings: for Chickweed plant response rating (0 to 100 scale): 62 g ai/ha, 0 is no effect, 13 to 15 days
How it was run: as §2

[7] = system: canarygrass (Phalaris minor); assay: Test B postemergence plant response; settings: for Canarygrass plant response rating (0 to 100 scale): 62 g ai/ha, 0 is no effect, 13 to 15 days
How it was run: as §2

[8] = system: pigweed (Amaranthus retroflexus); assay: Test B pre-/postemergence plant response; settings: for Pigweed plant response rating (0 to 100 scale): 62 g ai/ha, 0 is no effect, 13 to 15 days
How it was run: (§3)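 Seeds sown in loam–sand blend were treated preemergence, and plants at 2–18 cm (1- to 4-leaf stage) in peat-based medium were treated postemergence; compounds were formulated in non-phytotoxic solvent with surfactant. After 13–15 days in greenhouse, response was visually rated against controls, 0 (no effect) to 100 (complete control).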

wild oat (Avena fatua) = assay: Test B pre-/postemergence plant response; settings: for Oat, Wild plant response rating (0 to 100 scale): 62 g ai/ha, 0 is no effect, 13 to 15 days
How it was run: as §3

[9] = postemergence, 100 is complete control
[10] = 250 g ai/ha, flooded paddy test, visual rating on 0 to 100 scale (0 no effect, 100 complete control) after 13 to 15 days
[11] = Flood (flooded paddy test), 62 g ai/ha, scale of 0 to 100 where 0 is no effect and 100 is complete control, 13 to 15 days
[12] = Flood (flooded paddy test), 125 g ai/ha, scale 0 to 100, 0 is no effect, 100 is complete control, 13 to 15 days
[13] = 31 g ai/ha, postemergence, scale 0 to 100, 0 is no effect, 100 is complete control
[14] = Postemergence, 125 g ai/ha, scale 0 to 100 (0 no effect, 100 complete control)
[15] = Postemergence, 250 g ai/ha, scale 0 to 100 (0 no effect, 100 complete control)

## COCCn1c(-c2ccsc2)ncc(C(=O)C2=C(O)CCCC2=O)c1=O [Compound 97, 5-[(2-hydroxy-6-oxo-1-cyclohexen-1-yl)carbonyl]-3-(2-methoxyethyl)-2-(3-thienyl)-4(3H)-pyrimidinone]
[1]; Echinochloa crus-galli, 360 h, 250 g ai/ha, flooded paddy test, visual rating on 0 to 100 scale (0 no effect, 100 complete control) after 13 to 15 days, read-out: Plant response rating, Flood, Barnyardgrass
  pest or weed control at 250 g/ha: 75%
[1]; Echinochloa crus-galli, 360 h, Flood (flooded paddy test), 62 g ai/ha, scale of 0 to 100 where 0 is no effect and 100 is complete control, 13 to 15 days, read-out: Plant response rating, Barnyardgrass
  pest or weed control at 62 g/ha: 40%
[1]; Echinochloa crus-galli, 360 h, Flood (flooded paddy test), 125 g ai/ha, scale 0 to 100, 0 is no effect, 100 is complete control, 13 to 15 days, read-out: Plant response rating, Barnyardgrass
  pest or weed control at 125 g/ha: 60%
[1]
  Barnyardgrass plant response rating: 30
[2]
  Ducksalad plant response rating: 30
[2]; Heteranthera limosa, 360 h, 250 g ai/ha, flooded paddy test, visual rating on 0 to 100 scale (0 no effect, 100 complete control) after 13 to 15 days, read-out: Plant response rating, Flood, Ducksalad
  pest or weed control at 250 g/ha: 70%
[2]; Heteranthera limosa, 360 h, Flood (flooded paddy test), 62 g ai/ha, scale of 0 to 100 where 0 is no effect and 100 is complete control, 13 to 15 days, read-out: Plant response rating, Ducksalad
  pest or weed control at 62 g/ha: 30%
[2]; Heteranthera limosa, 360 h, Flood (flooded paddy test), 125 g ai/ha, scale 0 to 100, 0 is no effect, 100 is complete control, 13 to 15 days, read-out: Plant response rating, Ducksalad
  pest or weed control at 125 g/ha: 30%
[3]; Cyperus difformis, 360 h, 250 g ai/ha, flooded paddy test, visual rating on 0 to 100 scale (0 no effect, 100 complete control) after 13 to 15 days, read-out: Plant response rating, Flood, Sedge, Umbrella
  pest or weed control at 250 g/ha: 80%
[3]; Cyperus difformis, 360 h, Flood (flooded paddy test), 62 g ai/ha, scale of 0 to 100 where 0 is no effect and 100 is complete control, 13 to 15 days, read-out: Plant response rating, Sedge, Umbrella
  pest or weed control at 62 g/ha: 40%
[3]; Cyperus difformis, 360 h, Flood (flooded paddy test), 125 g ai/ha, scale 0 to 100, 0 is no effect, 100 is complete control, 13 to 15 days, read-out: Plant response rating, Sedge, Umbrella
  pest or weed control at 125 g/ha: 70%
[3]
  Sedge, Umbrella plant response rating: 30
Rice (Oryza sativa)
  Rice plant response rating: 0
Rice (Oryza sativa); Oryza sativa, 250 g ai/ha, flooded paddy test, visual rating on 0 to 100 scale (0 no effect, 100 complete control) after 13 to 15 days, read-out: Plant response rating, Flood, Rice
  plant injury at 250 g/ha: 40%
Rice (Oryza sativa); Oryza sativa, Flood (flooded paddy test), 62 g ai/ha, scale of 0 to 100 where 0 is no effect and 100 is complete control, 13 to 15 days, read-out: Plant response rating, Rice
  plant injury at 62 g/ha: 0%
Rice (Oryza sativa); Oryza sativa, Flood (flooded paddy test), 125 g ai/ha, scale 0 to 100, 0 is no effect, 100 is complete control, 13 to 15 days, read-out: Plant response rating, Rice
  plant injury at 125 g/ha: 0%
[4]; [9]
  Barley plant response rating (0 to 100 scale): 0
[4]; Hordeum vulgare, post-emergence, 31 g ai/ha, postemergence, scale 0 to 100, 0 is no effect, 100 is complete control, read-out: Plant response rating, Barley
  plant injury at 31 g/ha: 0%
[4]; Hordeum vulgare, post-emergence, Postemergence, 125 g ai/ha, visual rating after 13 to 15 days, scale 0 (no effect) to 100 (complete control)
  plant injury at 125 g/ha: 0%
[4]; Hordeum vulgare, post-emergence, Postemergence, 250 g ai/ha, scale 0 to 100 (0 no effect, 100 complete control), read-out: Plant response rating, Barley
  plant injury at 250 g/ha: 5%
[5]; [9]
  Windgrass plant response rating (0 to 100 scale): 50
[5]; Apera spica-venti, post-emergence, 360 h, 31 g ai/ha, postemergence, scale 0 to 100, 0 is no effect, 100 is complete control, read-out: Plant response rating, Windgrass
  pest or weed control at 31 g/ha: 5%
[5]; Apera spica-venti, post-emergence, 360 h, Postemergence, 250 g ai/ha, scale 0 to 100 (0 no effect, 100 complete control), read-out: Plant response rating, Windgrass
  pest or weed control at 250 g/ha: 85%
[6]; [9]
  Chickweed plant response rating (0 to 100 scale): 100
[6]; Stellaria media, post-emergence, 360 h, 31 g ai/ha, postemergence, scale 0 to 100, 0 is no effect, 100 is complete control, read-out: Plant response rating, Chickweed
  pest or weed control at 31 g/ha: 95%
[6]; Stellaria media, post-emergence, 360 h, Postemergence, 125 g ai/ha, visual rating after 13 to 15 days, scale 0 (no effect) to 100 (complete control)
  pest or weed control at 125 g/ha: 100%
[6]; Stellaria media, post-emergence, 360 h, Postemergence, 250 g ai/ha, scale 0 to 100 (0 no effect, 100 complete control), read-out: Plant response rating, Chickweed
  pest or weed control at 250 g/ha: 100%
[7]; [9]
  Canarygrass plant response rating (0 to 100 scale): 10
[7]; Phalaris minor, post-emergence, 360 h, 31 g ai/ha, postemergence, scale 0 to 100, 0 is no effect, 100 is complete control, read-out: Plant response rating, Canarygrass
  pest or weed control at 31 g/ha: 0%
[7]; Phalaris minor, post-emergence, 360 h, Postemergence, 125 g ai/ha, visual rating after 13 to 15 days, scale 0 (no effect) to 100 (complete control)
  pest or weed control at 125 g/ha: 10%
[7]; Phalaris minor, post-emergence, 360 h, Postemergence, 250 g ai/ha, scale 0 to 100 (0 no effect, 100 complete control), read-out: Plant response rating, Canarygrass
  pest or weed control at 250 g/ha: 30%
[8]; [9]
  Pigweed plant response rating (0 to 100 scale): 100
[8]; Amaranthus retroflexus, post-emergence, 31 g ai/ha, postemergence, scale 0 to 100, 0 is no effect, 100 is complete control, read-out: Plant response rating, Pigweed
  pest or weed control at 31 g/ha: 95%
[8]; Amaranthus retroflexus, post-emergence, Postemergence, 250 g ai/ha, scale 0 to 100 (0 no effect, 100 complete control), read-out: Plant response rating, Pigweed
  pest or weed control at 250 g/ha: 100%
Wild oat (Avena fatua); [9]
  Oat, Wild plant response rating (0 to 100 scale): 5
Wild oat (Avena fatua); Avena fatua, post-emergence, 31 g ai/ha, postemergence, scale 0 to 100, 0 is no effect, 100 is complete control, read-out: Plant response rating, Oat, Wild
  pest or weed control at 31 g/ha: 0%
Wild oat (Avena fatua); Avena fatua, post-emergence, Postemergence, 250 g ai/ha, scale 0 to 100 (0 no effect, 100 complete control), read-out: Plant response rating, Oat, Wild
  pest or weed control at 250 g/ha: 10%

## O=C1CCCC(O)=C1C(=O)c1cnc(-c2ccsc2)n(CC2CCCO2)c1=O (stereo not shown) [Compound 98]
[1]; [10]
  Plant response rating, Flood, Barnyardgrass: 50
[1]; [11]
  Plant response rating, Barnyardgrass: 30
[1]; [12]
  Plant response rating, Barnyardgrass: 30
[1]
  Barnyardgrass plant response rating: 0
[2]; [10]
  Plant response rating, Flood, Ducksalad: 0
[2]; [11]
  Plant response rating, Ducksalad: 0
[2]; [12]
  Plant response rating, Ducksalad: 0
[2]
  Ducksalad plant response rating: 0
[3]; [10]
  Plant response rating, Flood, Sedge, Umbrella: 75
[3]; [11]
  Plant response rating, Sedge, Umbrella: 65
[3]; [12]
  Plant response rating, Sedge, Umbrella: 75
[3]
  Sedge, Umbrella plant response rating: 40
Rice (Oryza sativa); [10]
  Plant response rating, Flood, Rice: 40
Rice (Oryza sativa); [11]
  Plant response rating, Rice: 0
Rice (Oryza sativa); [12]
  Plant response rating, Rice: 0
Rice (Oryza sativa)
  Rice plant response rating: 0
[4]; [13]
  Plant response rating, Barley: 0
[4]; [9]
  Barley plant response rating (0 to 100 scale): 5
[4]; [14]
  Plant response rating, Barley: 10
[4]; [15]
  Plant response rating, Barley: 15
[5]; [9]
  Windgrass plant response rating (0 to 100 scale): 20
[5]; [14]
  Plant response rating, Windgrass: 50
[5]; [15]
  Plant response rating, Windgrass: 70
[6]; [13]
  Plant response rating, Chickweed: 80
[6]; [9]
  Chickweed plant response rating (0 to 100 scale): 80
[6]; [14]
  Plant response rating, Chickweed: 98
[6]; [15]
  Plant response rating, Chickweed: 100
[7]; [13]
  Plant response rating, Canarygrass: 5
[7]; [9]
  Canarygrass plant response rating (0 to 100 scale): 20
[7]; [14]
  Plant response rating, Canarygrass: 35
[7]; [15]
  Plant response rating, Canarygrass: 50
[8]; [13]
  Plant response rating, Pigweed: 100
[8]; [9]
  Pigweed plant response rating (0 to 100 scale): 100
[8]; [14]
  Plant response rating, Pigweed: 100
[8]; [15]
  Plant response rating, Pigweed: 100
Wild oat (Avena fatua); [13]
  Plant response rating, Oat, Wild: 10
Wild oat (Avena fatua); [9]
  Oat, Wild plant response rating (0 to 100 scale): 20
Wild oat (Avena fatua); [14]
  Plant response rating, Oat, Wild: 20
Wild oat (Avena fatua); [15]
  Plant response rating, Oat, Wild: 50
